Source: US20240189449A1, “LIPID NANOPARTICLES AND POLYNUCLEOTIDES ENCODING ORNITHINE TRANSCARBAMYLASE FOR THE TREATMENT OF ORNITHINE TRANSCARBAMYLASE DEFICIENCY” (ModernaTX, Inc., priority 2021, published 2024)

Tests used:
Sprague Dawley rats [1] = assay: hEPO expression in serum after IV lipid nanoparticles with hEPO mRNA, Sprague Dawley rats; format: in vivo; settings: serum 6 hours after injection
Experimental: To further assess potency of expression and metabolic stability of lipids of the disclosure, hepatocyte protein expression (hEPO) was measured following administration to rats of a nanoparticle of the disclosure.
(§1) Lipid nanoparticles including DSPC as a phospholipid, cholesterol as a structural lipid, Compound I as a PEG lipid, an ionizable amino lipid of Formula (II), and an mRNA encoding hEPO were intravenously administered to Sprague Dawley rats. The concentration of hEPO in serum was tested at 6 hours after injection.

CD-1 mice [2] = assay: Parent lipid remaining in liver at 24 h, CD-1 mice (hEPO mRNA LNPs); format: in vivo; settings: for Approx. Percent Total Dose of Parent Lipid Remaining at 24 h: calculation assumes a 25 g mouse with a 1.5 g liver
CD-1 mice [3] = assay: hEPO expression in serum after IV lipid nanoparticles with hEPO mRNA, CD-1 mice; format: in vivo; settings: LNP with DSPC, cholesterol, Compound I; for Mean 6 hr hEPO Concentration: serum 6 hours after injection
Experimental: To assess potency of expression and metabolic stability of lipids of the disclosure, hepatocyte protein expression (hEPO) was measured following administration to mice of a nanoparticle of the disclosure.
as §1, with “CD-1 mice.” for “Sprague Dawley rats.”

mice [4] = assay: Residual lipid levels in the liver at 24 h, mice (luciferase mRNA LNPs); format: in vivo
mice [5] = assay: Luciferase expression, total whole body flux, mice; format: in vivo
Experimental: (§2) To further assess potency of expression and metabolic stability of lipids of the disclosure, expression of luciferase was measured following administration to rodents of a nanoparticle of the disclosure comprising an mRNA containing luciferase.
Lipid nanoparticles including DSPC as a phospholipid, cholesterol as a structural lipid, Compound I as a PEG lipid, an ionizable amino lipid of Formula (II), and an mRNA encoding luciferase were intravenously administered to CD-1 mice and Sprague Dawley rats. […]

cynomolgus monkeys = assay: Luciferase level in livers ex vivo (ELISA), cynomolgus monkeys; settings: IV
Experimental: To the assess potency of expression and metabolic stability of lipids of the disclosure in different species, the expression of an mRNA was measured following administration to non-human primates of a nanoparticle of the disclosure containing the mRNA.
as §1, with “luciferase” for “hEPO”, “cynomolgus monkeys.” for “Sprague Dawley rats.”, “level” for “concentration”, “livers ex vivo” for “serum”, “measured via ELISA” for “tested”

Sprague Dawley rats [6] = assay: Parent lipid remaining in liver tissue at 24 h, rats; format: in vivo; settings: rat
CD-1 mice [7] = assay: NPI-Luciferase expression, ex vivo liver bioluminescence, CD-1 mice; format: in vivo; settings: mouse, IV
Experimental: as §2
as §1, with “luciferase” for “hEPO”, “to CD-1 mice and” for “to”, “level” for “concentration”, “expression” for “hEPO in serum”, “tested via bioluminescence in the liver ex vivo” for “tested”

Sprague Dawley rats [8] = assay: NPI-Luciferase expression, ex vivo liver bioluminescence, Sprague Dawley rats; format: in vivo; settings: rat, IV
Experimental: as §2
as §1, with “luciferase” for “hEPO”, “to CD-1 mice and” for “to”, “level” for “concentration”, “expression” for “hEPO in serum”, “tested via bioluminescence in the liver ex vivo” for “tested”

Row | Structure (SMILES) | Parent Lipid Remaining (nmol/g liver tissue) at 24 h (CD-1 mice [2]) [nmol/g liver tissue] | Approx. Percent Total Dose of Parent Lipid Remaining at 24 h (CD-1 mice [2]) [%] | Approx. Percent Total Dose of Parent Lipid Remaining at 24 h (Sprague Dawley rats [6]) [%] | Mean 6 hr hEPO Concentration (Sprague Dawley rats [1]) [mIU/mL] | hEPO AUC (CD-1 mice [3]) | Mean 6 hr hEPO Concentration (CD-1 mice [3]) [mIU/mL] | % Lipid Remaining @ 24 h (mice [4]) [%] | Total Whole Body Flux @ 6 h (mice [5]) [p/s] | Mean 6 h NPI-Luciferase Concentration (cynomolgus monkeys) [ng/g] | Mean 6 h ex vivo Liver NPI-Luciferase Total Flux (CD-1 mice [7]) [photons/second] | Mean 6 h ex vivo Liver NPI-Luciferase Total Flux (Sprague Dawley rats [8]) [photons/second]
1 | CCCCCCCCC(CCCCCCCC)OC(=O)CCCCCCCN(CCCCCCCC(=O)OCC(CCCC)CCCCCCC)CCCNc1c(NC)c(=O)c1=O (stereo not drawn) [Compound 10] |  |  |  |  |  |  | 67 ± 7 | 4.6E+09 |  |  | 
2 | CCCCCC(CCCCC)CCOC(=O)CCCCCCCN(CCCCCCCC(=O)OCCC(CCCCC)CCCCC)CCCNc1c(NC)c(=O)c1=O [Compound 30, Bis(3-pentyloctyl) 8,8′-((3-((2-(methylamino)-3,4-dioxocyclobut-1-en-1-yl)amino)propyl)azanediyl)dioctanoate] | 25 ± 4 | 26 | 25 | 688780 | 2.40E+07 | 1592050 |  |  | 782 | 299800000 | 963633333.3
3 | CCCCCC(CCCCC)CCOC(=O)CCCCCCCN(CCCCCCCC(=O)OCCC(CCCC)CCCC)CCCNc1c(NC)c(=O)c1=O [Compound 54, 3-Butylheptyl 8-((3-((2-(methylamino)-3,4-dioxocyclobut-1-en-1-yl)amino)propyl)(8-oxo-8-((3-pentyloctyl)oxy)octyl)amino)octanoate] | 12 ± 1 | 12 |  | 476742 | 1.97E+07 | 647775 |  |  | 693 |  | 
4 | CCCCCCCCC(CCCCCCCC)OC(=O)CCCCCCCN(CCCCCCCC(=O)OCC(CCC)CCCCCCC)CCCNc1c(NC)c(=O)c1=O (stereo not drawn) [Compound 9] |  |  |  |  |  |  | 68 ± 10 | 1.82E+10 |  |  | 
5 | CCCCCCCCC(CCCCCCCC)OC(=O)CCCCCCCN(CCO)CCCCCCCC(=O)OCCC(CCCC)CCCCCC (stereo not drawn) [Compound 7] | 0.3 ± 0.2 | 0.2 |  |  | 2.13E+07 | 1355957 | <1 | 6.09E+10 |  |  | 
6 | CCCCCCCCC(CCCCCCCC)OC(=O)CCCCCCCN(CCCCCCCC(=O)OCC(CC)CCCCCCC)CCCNc1c(NC)c(=O)c1=O (stereo not drawn) [Compound 11] |  |  |  |  |  |  | 23 ± 6 | 1.04E+10 |  |  | 
7 | CCCCCCCCC(CCCCCCCC)OC(=O)CCCCCCCN(CCO)CCCCCCCC(=O)OCCC(CCC)CCCCCC (stereo not drawn) [Compound 13] |  |  |  |  |  |  | <1 | 3.77E+10 |  |  | 
8 | CCCCCCCCC(CCCCCCCC)OC(=O)CCCCCCCN(CCO)CCCCCCCC(=O)OCC(CCC)CCCCCCC (stereo not drawn) [Compound 8] |  |  |  |  |  |  | <1 | 3.82E+10 |  |  | 
9 | CCCCCCCCC(CCCCCCCC)COC(=O)CCCCCN(CCCCCCCC(=O)OC(CC)CCCCCCCC)CCCNc1c(NC)c(=O)c1=O (stereo not drawn) [Compound 14] | 56 ± 6 | 58 | 58 |  | 4.53E+07 | 2952339 |  |  |  | 465200000 | 1567000000
10 | CCCCCCCCC(CCCCCCCC)OC(=O)CCCCCCCN(CCCCCCCC(=O)OCCC(CCCC)CCCCCC)CCCNc1c(NC)c(=O)c1=O (stereo not drawn) [Compound 20] | 65 ± 5 | 67 |  |  | 2.13E+07 | 1414856 |  |  |  |  | 
11 | CCCCCCCCC(CCCCCCCC)OC(=O)CCCCCCCN(CCO)CCCCCCCC(=O)OCCC(CCCCCC)C(C)C (stereo not drawn) [Compound 12] |  |  |  |  |  |  | <1 | 2.39E+10 |  |  | 
12 | CCCCCCCCC(CCCCCCCC)OC(=O)CCCCCCCN(CCCCCCCC(=O)OCCC(CCC)CCCCCC)CCCNc1c(NC)c(=O)c1=O (stereo not drawn) [Compound 18] | 40 ± 7 | 41 | 41 |  | 3.17E+07 | 2158772 |  |  |  | 372800000 | 1473333333

The next lines start with results.

Row | Parent Lipid Remaining (nmol/g liver tissue) at 24 h (CD-1 mice [2]) [nmol/g liver tissue] | Approx. Percent Total Dose of Parent Lipid Remaining at 24 h (CD-1 mice [2]) [%] | Approx. Percent Total Dose of Parent Lipid Remaining at 24 h (Sprague Dawley rats [6]) [%] | Structure (SMILES) | Mean 6 hr hEPO Concentration (Sprague Dawley rats [1]) [mIU/mL] | hEPO AUC (CD-1 mice [3]) | Mean 6 hr hEPO Concentration (CD-1 mice [3]) [mIU/mL] | % Lipid Remaining @ 24 h (mice [4]) [%] | Total Whole Body Flux @ 6 h (mice [5]) [p/s] | Mean 6 h NPI-Luciferase Concentration (cynomolgus monkeys) [ng/g] | Mean 6 h ex vivo Liver NPI-Luciferase Total Flux (CD-1 mice [7]) [photons/second] | Mean 6 h ex vivo Liver NPI-Luciferase Total Flux (Sprague Dawley rats [8]) [photons/second]
13 | 4.9 ± 0.9 | 6 ± 0.8 |  | CCCCCCC(CCCCCC)OC(=O)CCCCCCCN(CCCCCCCC(=O)OCCC(CCC)CCC)CCCNc1c(NC)c(=O)c1=O [Compound 64] | 161146 | 2.43E+07 | 1760015 |  |  |  |  | 
14 | 3 ± 0.6 | 3 |  | CCCCC(CCCC)CCOC(=O)CCCCCCCN(CCCCCCCC(=O)OCCC(CCCC)CCCC)CCCNc1c(NC)c(=O)c1=O [Compound 55] | 161760 | 1.99E+07 | 1332073 |  |  |  |  | 
15 | 3 ± 1 | 2 | 2 | CCCCCCCCC(CCCCCCCC)OC(=O)CCCCCCCN(CCO)CCCCCCCC(=O)OCCC(CCCCC)CCCCC [Compound 24] |  | 1.93E+07 | 1160499 |  |  |  | 240400000 | 2020000000
16 | 5.1 ± 0.8 | 6 ± 0.3 |  | CCCCCC(CCCCC)OC(=O)CCCCCCCN(CCCCCCCC(=O)OCCC(CCCC)CCCC)CCCNc1c(NC)c(=O)c1=O [Compound 61] | 362569 | 1.44E+07 | 1020791 |  |  |  |  | 
17 | 1.8 ± 0.6 | 2 ± 0.9 |  | CCCCC(CCCC)CCOC(=O)CCCCCCCN(CCCCCCCC(=O)OC(CCCC)CCCC)CCCNc1c(NC)c(=O)c1=O [Compound 62] |  | 6.51E+06 | 475498 |  |  |  |  | 
18 | 12 ± 2 | 12 |  | CCCCCC(CCCCC)CCCOC(=O)CCCCCCCN(CCCCCCCC(=O)OCCCC(CCCCC)CCCCC)CCCNc1c(NC)c(=O)c1=O [Compound 34] |  | 3.01E+06 | 205437 |  |  |  |  | 
